For assay [1], the system named is paxillin mRNA. The assay is described as follows: Stimulation of paxillin mRNA in vitro (QuantiGene multiplex branched DNA assay). Type of assay: cell-based. The conditions noted are these: normal human dermal fibroblasts, 24 hours treatment, normalized to GAPDH. As for the experimental part: Normal human dermal fibroblasts (Cascade Biologics) were cultured in 96-well tissue culture treated plates, with 200 μl DMEM in 10% serum per well, and incubated for 24 hours at 37° C. and 10% CO2. In some cases, normal human epidermal keratinocytes (Cascade Biologics) were cultured in 200 μl EpiLife medium (Cascade Biologics) per well, and incubated overnight at 37° C. and 5% CO2.
Stock solutions of candidate paxillin stimulators (test materials) were made in appropriate solvents (e.g., DMSO, water, ethanol, a 50:50 ethanol:water mixture) to give weight % as indicated in Table 1 below. Cells were treated with test material or a respective vehicle control diluted in growth medium for 24 hours in a humidified 37° C. incubator with 10% CO2. After incubation, growth medium from each plate was removed and 100 μl of lysis buffer was added to the wells and placed in 37° C. incubator with 5% CO2 for 30 minutes. At the end of incubation, the cells were collected in freezer plates and placed in a −80° C. freezer until analysis.
Changes in mRNA for paxillin in cell lysates after treatment were analysed using QuantiGene® multiplex assay (Panomics Inc. CA) that employs a branched DNA technology. This technology is a hybridization-based method of target-specific RNA quantification that amplifies a signal(s) rather than target RNA, using labelled DNA probe. Probes for Paxillin gene (ID: NM_005953) were designed and synthesized. Paxillin probes, reference probes PPIB and GAPDH, along with a set of other probes were used in this multiplex assay.
The probes used include capture extenders (CE), label extenders (LE), and blockers (BL). As described above, this arrangement provides a target sequence that is double-stranded, thereby improving hybridization efficiency. The CE, LE, and BL sequences used for identifying paxillin mRNA corresponded to SEQ ID NOS: 1, 2, and 3, respectively.
Appropriately diluted cell lysates were hybridized with the paxillin and reference probes in a hybridization plate in a Vortemp shaking incubator, for 18-22 hours at 54° C.±1° C. and 600 rpm. Once the paxillin and the reference mRNAs were captured, the unbound material was filtered using filter plates and washed three times with a wash buffer. Signal amplification was performed using two steps—first a 2.0 Pre-amplifier (Panomics Inc.) was added and incubated for 1 hour in the Vortemp shaking incubator at 54° C.±1° C. and 600 rpm. Unbound Pre-amplifier was filtered using a Filter plate and washed twice. Next the samples were exposed to 2.0 Amplifier (Panomics Inc.) and incubated, filtered, and washed as with the Pre-amplifier. Next the samples were hybridized with biotinylated labelled probe, and incubated for one hour at 54° C.±1° C. and 600 rpm. Samples were then filtered and washed as above. Finally, Streptavidin-conjugated Phycoerythrin (SAPE) working reagent was added and the mixture shaken for 30 minutes at room temperature covered in aluminium foil. Unbound SAPE was filtered and washed twice. SAPE wash buffer was added to each well with shaking for 2-5 minutes, and then readings were taken immediately using a Luminex machine.
Values for amounts of paxillin mRNA were determined along with those for the reference genes PPIB and GAPDH. Values were normalized to GAPDH to determine changes in paxillin mRNA after treatment. Percent increase in mRNA for paxillin was calculated in each case by comparing values after treatment with a candidate paxillin stimulator to values after treatment with the vehicle control.

In assay [2] the test system is Paxillin protein. The assay is described as follows: Stimulation of paxillin protein in human skin biopsy (topical patch, immunohistochemistry). The class given is in vivo. The source says: Compositions comprising a paxillin stimulator were each tested on 21 subject volunteers. For each paxillin stimulator, the composition was topically applied via a patch attached to the back of a randomly selected forearm of each of 21 volunteers, and a vehicle control was similarly applied to the back of the volunteer's forearm. After 3 weeks, the human skin biopsies were taken from the treated skin of the various volunteers and subjected to immunohistochemisty preparation. […] Elevated protein level was determined for each treated subject by comparing to the vehicle control.

With `Cc1ccc(C(C)C)cc1O` [Carvacrol], the “% increase in Paxillin (relative to control)” value in assay [1] (Weight % 0.0001%) turned out to be 39.50%.
As for `O=C(c1ccccc1)N1C[C@@H]2C[C@H](C1)c1ccc(-c3ccco3)c(=O)n1C2` [Compound of Formula V], the “% increase in Paxillin (relative to control)” value in assay [1] (Weight % 0.00005%) was 28.52%.
Turning to `Oc1ccc(C2COc3cc(O)ccc3C2)cc1` (stereo not drawn) [Equol, 4′,7-isoflavandiol], the “% increase in Paxillin (relative to control)” value in assay [1] (Weight % 0.0001%) is on record as 61.46%; in assay [1] (Weight % 0.001%), 220.36%.
Turning to `CCCCCCCC/C=C\CCCCCCCC(=O)OC/C=C(C)/C=C/C=C(C)/C=C/C1=C(C)CCCC1(C)C` [Retinyl oleate], in assay [1] (Weight % 0.01%), the “% increase in Paxillin (relative to control)” value is reported as 60.21%.
The same measure, in the same setting: for `CCCCC=CC=CC=CCCCCCCCC(=O)OCC=C(C)C=CC=C(C)C=CC1=C(C)CCCC1(C)C` [Retinyl punicate] the value was 69.68%.
`Cc1coc2c1C(=O)C(=O)c1c-2ccc2c1CCCC2(C)C` [Tanshinone IIA, 1,6,6-trimethyl-8,9-dihydro-7H-naphtho[1,2-g][1]benzofuran-10,11-dione]: in assay [1] (Weight % 0.025%), the “% increase in Paxillin (relative to control)” value amounted to 188.31%.
For the molecule `COc1ccc2cc1Oc1ccc(cc1)C[C@H]1c3cc(c(OC)cc3CCN1C)Oc1c(OC)c(OC)cc3c1[C@H](C2)N(C)CC3` [Tetrandine, 6,6′,7,12-Tetramethoxy-2,2′-dimethyl-berbaman], the “% increase in Paxillin (relative to control)” value in assay [1] (Weight % 0.001%) was 84.31%.
As for `CC/C=C\CCCCCO` [cis-6-Nonenol, Cis-6-Nonenol], the “% increase in Paxillin (relative to control)” value in assay [1] (Weight % 0.001%) is reported as 60.84%. In addition, in assay [2] (percentage of subjects with elevated paxillin protein level vs vehicle control, topical patch on forearm, 3 weeks), the “% Subjects Improved” value was determined as 71.4%. Moreover, the “paxillin protein in human skin biopsies (antibody stain, FIG. 1)” value in assay [2] (representative photographs, compared to treatment with a control) is reported as “increased paxillin protein”. In addition, the “No. Showing Improvement” value in assay [2] (subjects with elevated paxillin protein level vs vehicle control, topical patch on forearm, 3 weeks, 21 subjects) was 15.
